{"source": "patent US7705016B2", "about": "“Regulation of food intake by modulation of long-chain fatty acyl-CoA levels in the hypothalamus” (Albert Einstein College of Medicine of Yeshiva University, priority 2003, dated 2010)", "system": "CPT1L mRNA", "assay": "CPT1L mRNA in stably transfected AtT20 cells (northern blot)", "type": "cell-based", "conditions": "AtT20 cells expressing CPT1L-Ribo; normalized to β-actin", "from_the_text": "Potent anorexic drugs such as fatty acid synthase (FAS) inhibitors increase the levels of malonyl-CoA, which is derived from the carboxylation of acetyl-CoA by the enzyme acetyl-CoA carboxylase (ACC). High levels of malonyl-CoA in turn inhibit CPT1-dependent oxidation of long-chain fatty acyl-CoAs (LC-CoAs). Similarly, the ICV administration of exogenous fatty acids (LCFA) directly increases the cellular levels of LC-CoA. In either case the resulting increase in intracellular LC-CoA concentration leads to inhibition of feeding behavior. […] LEFT: A probe specific for the liver isoform of CPT1 (CPT1L) detected a ˜4.3 Kb band in the liver (L) and in hypothalamus (H), but not in hind limb muscle (M). RIGHT: Hybridization with a muscle-specific CPT1 probe (CPT1M) detected a ˜3 Kb band in […] muscle (M), but not in hypothalamus. Each lane contained 1.5 μg of mRNA. […] About 200 stable clones were selected for neomycin resistance and analyzed by Northern blot. […] Data are expressed as % of control after normalization with β-actin expression. […] Levels of LC-CoAs were measured by HPLC in liver and skeletal muscle tissues of rats infused IV with vehicle (▪) or CPT1 inhibitors (□). […]\nQuantitation of CPT1 and neuropeptides mRNA by Northern and real-time PCR. […]", "data": [{"substance": "CPT1L-Ribo: plasmid (pTarget, CMV promoter) expressing a hammerhead ribozyme that specifically cleaves rat CPT1L mRNA, complexed to PEI for ICV injection (DNA CUGUACCAAAGAGCUGUAGAGUCCGUGAGGACGAAACGCCGCUCACAAUG)", "values": [{"measurement": "less CPT1L mRNA than control cells transfected with vector alone", "result": "~50", "unit": "%"}]}]}
